# Measurements from patent US20240116921A1, “LACTAM (HETERO)[…] DERIVATIVES AS INHIBITORS OF ERBB2” (EnLiven Therapeutics, Inc., priority 2020, published 2024).
# Tests used:
# [1] = molecular target: T1, phosphorylated EGFR (pEGFR) (Homo sapiens, UniProt P00533); assay: Detection of phosphorylated EGFR (pEGFR) in EGF-stimulated A431 cells; assay type: cell-based; details: A431 cells (10% FBS), 4 hours incubation, EGF 30 ng/mL 10 minutes, AlphaLISA
# T1 construct: performed to measure phosphorylated EGFR levels using A431 cells (10% FBS); endogenous in cells; host or cells: A431
# T1 sequence (P00533 25-1210): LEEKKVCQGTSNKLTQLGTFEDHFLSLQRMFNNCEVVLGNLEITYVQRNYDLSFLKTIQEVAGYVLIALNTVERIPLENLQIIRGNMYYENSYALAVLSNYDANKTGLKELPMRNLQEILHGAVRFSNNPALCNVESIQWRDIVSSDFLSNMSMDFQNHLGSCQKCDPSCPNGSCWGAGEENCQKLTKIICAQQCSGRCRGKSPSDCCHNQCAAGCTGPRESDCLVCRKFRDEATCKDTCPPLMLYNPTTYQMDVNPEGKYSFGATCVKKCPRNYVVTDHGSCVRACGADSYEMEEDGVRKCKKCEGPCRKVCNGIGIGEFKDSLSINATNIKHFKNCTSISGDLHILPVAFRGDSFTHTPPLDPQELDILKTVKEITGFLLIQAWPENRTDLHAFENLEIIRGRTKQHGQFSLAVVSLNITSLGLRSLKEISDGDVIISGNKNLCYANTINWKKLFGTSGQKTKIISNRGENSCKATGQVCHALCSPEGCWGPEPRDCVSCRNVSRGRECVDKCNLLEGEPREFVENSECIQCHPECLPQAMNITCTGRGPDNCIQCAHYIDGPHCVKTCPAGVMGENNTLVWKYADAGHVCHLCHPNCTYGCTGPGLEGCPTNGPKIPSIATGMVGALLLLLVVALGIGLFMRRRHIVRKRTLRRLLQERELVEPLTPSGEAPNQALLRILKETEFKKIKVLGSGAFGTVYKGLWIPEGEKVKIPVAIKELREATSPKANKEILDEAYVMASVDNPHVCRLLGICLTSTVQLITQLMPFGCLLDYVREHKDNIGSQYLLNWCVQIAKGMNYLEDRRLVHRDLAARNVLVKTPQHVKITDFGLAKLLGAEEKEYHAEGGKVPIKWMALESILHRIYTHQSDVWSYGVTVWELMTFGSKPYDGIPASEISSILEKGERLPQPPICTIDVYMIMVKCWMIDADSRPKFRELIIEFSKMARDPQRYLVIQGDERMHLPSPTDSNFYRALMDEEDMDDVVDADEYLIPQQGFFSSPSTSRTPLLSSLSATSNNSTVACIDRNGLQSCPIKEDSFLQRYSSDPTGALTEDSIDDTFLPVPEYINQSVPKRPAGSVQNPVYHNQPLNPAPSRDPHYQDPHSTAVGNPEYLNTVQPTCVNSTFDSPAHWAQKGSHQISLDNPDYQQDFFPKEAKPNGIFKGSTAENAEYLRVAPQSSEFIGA
# Method: Enzyme-linked immunosorbent assays (ELISA) were performed to measure phosphorylated EGFR levels using A431 cells (10% FBS). A431 (1.0*10^4 cells/40 μl/well) cells were seeded in 384 well. Compounds were dissolved in DMSO, serially diluted in DMSO and then were added, mixed, and incubated for 4 hours at 37° C., 5% CO2. Following the 4-hours incubation, cells were stimulated for 10 minutes with EGF (Invitrogen, cat #PHG0311) at a final concentration of 30 ng/mL in the incubator. The media was aspirated and cells were lysed in 10 μL lysis buffer with protease and phosphatase inhibitors (PerkinElmer, cat #ALSU-PEGFR-A50K). The plates were placed on a shaker for 5 minutes and then incubated for 30 min at 4° C. for complete lysis. The lysate was transferred to an Optiplate (Perkin Elmer, cat #6007290).
# Acceptor mix (PerkinElmer, cat #ALSU-PEGFR-A50K) was prepared just before use and 5 μL was dispensed to all the wells, followed by a 1.5-2 h incubation at room temperature in dark. The donor mix (PerkinElmer, cat #ALSU-PEGFR-A50K) was prepared under low light conditions prior to use and […] of donor mix was added to all the wells under subdued lighting or green filters. The plates were placed on a shaker for 5 min, sealed, and incubated overnight at room temperature in dark. Plates were read on the Envision (PerkinElmer) using standard AlphaLISA settings.
# The percentage of inhibition on EGFR phosphorylation was calculated following equation: % Inhibition=100×(LumHC−LumSample)/(LumHC−LumLC). The low and high controls (LC/HC) are generated from lysate from wells with cells treated with DMSO or […] Staurosporine (BioAustralis, cat #BIA-S1086), […]. IC50 values were calculated by fitting the Curve using XLfit (v5.3.1.3), equation 201: Y=Bottom+(Top−Bottom)/(1+10^((Log IC50−X)*HillSlope)).
# [2] = molecular target: T2, phosphorylated ERBB2 (pERBB2) (Homo sapiens, UniProt P04626); assay: Detection of phosphorylated ERBB2 (pERBB2) by ELISA in BT-474 cells; assay type: cell-based; details: four hours incubation
# T2 construct: endogenous in cells; host or cells: BT-474
# T2 sequence (P04626 23-1255): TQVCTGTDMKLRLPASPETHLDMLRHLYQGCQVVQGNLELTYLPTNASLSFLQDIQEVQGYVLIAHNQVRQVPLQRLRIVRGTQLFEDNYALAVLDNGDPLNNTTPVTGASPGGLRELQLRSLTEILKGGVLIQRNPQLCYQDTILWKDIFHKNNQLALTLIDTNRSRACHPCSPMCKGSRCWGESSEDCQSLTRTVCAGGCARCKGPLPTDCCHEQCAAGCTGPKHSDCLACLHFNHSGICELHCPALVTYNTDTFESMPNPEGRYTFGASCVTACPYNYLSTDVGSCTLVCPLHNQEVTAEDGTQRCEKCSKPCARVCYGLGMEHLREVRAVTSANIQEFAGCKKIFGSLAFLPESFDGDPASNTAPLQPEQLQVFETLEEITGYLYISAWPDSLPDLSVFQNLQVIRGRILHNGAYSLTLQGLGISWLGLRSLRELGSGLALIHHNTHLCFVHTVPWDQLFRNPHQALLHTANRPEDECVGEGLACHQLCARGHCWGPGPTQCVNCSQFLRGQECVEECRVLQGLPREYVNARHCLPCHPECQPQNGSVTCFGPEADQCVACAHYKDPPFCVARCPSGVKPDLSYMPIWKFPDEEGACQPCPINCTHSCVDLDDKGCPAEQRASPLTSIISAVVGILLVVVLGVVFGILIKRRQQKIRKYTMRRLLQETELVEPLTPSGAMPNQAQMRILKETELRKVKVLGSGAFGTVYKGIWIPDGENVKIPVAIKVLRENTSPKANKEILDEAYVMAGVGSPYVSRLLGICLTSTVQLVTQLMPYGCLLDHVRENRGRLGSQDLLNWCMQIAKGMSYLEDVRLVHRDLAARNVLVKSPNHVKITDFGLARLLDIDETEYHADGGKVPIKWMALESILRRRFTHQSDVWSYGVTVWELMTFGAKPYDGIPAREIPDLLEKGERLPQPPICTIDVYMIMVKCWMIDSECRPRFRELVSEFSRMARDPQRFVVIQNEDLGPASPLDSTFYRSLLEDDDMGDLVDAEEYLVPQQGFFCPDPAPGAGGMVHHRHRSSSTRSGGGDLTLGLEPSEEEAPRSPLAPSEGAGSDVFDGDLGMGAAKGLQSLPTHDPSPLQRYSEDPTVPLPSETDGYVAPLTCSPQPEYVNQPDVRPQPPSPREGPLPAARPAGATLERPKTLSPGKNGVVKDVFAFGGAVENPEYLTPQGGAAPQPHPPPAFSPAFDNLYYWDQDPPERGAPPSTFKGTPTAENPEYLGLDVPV
# Method: BT-474 cells were seeded into a 96-well at 2.0*10^4 cells/100 μl/well.
# Compounds were dissolved and serially diluted in DMSO. The compounds were then were added, mixed, and incubated for four hours at 37° C., 5% CO2. Compounds were added using four-fold dilutions at final concentrations ranging from 10 μM to 0.01 nM.
# Following the four hour incubation with compounds, cell lysates were prepared.
# Plates were centrifuged for 5 min at 3000 RPM, and supernatant was removed from each well. Cells were washed 3 times by resuspension in 150 μl PBS, followed by centrifugation and removal of the supernatant, as above. […] Cells were incubated with lysis buffer for 1 hour at 4° C., and then stored at −80° C.
# Enzyme-linked immunosorbent assays (ELISA) were performed to measure phosphorylated ERBB2 levels. […] The next day, plates were washed with PBS+0.05% Tween20 (PBST). 150 μl of 5% BSA blocking solution was added for 1 hour at room temperature, with shaking. Plates were washed with PBST. Cell lysates were thawed and 100 μl of lysate was added to the ELISA plate. The plates were incubated for 2 hours at room temperature, with shaking. […] Plates were incubated for 1 hour at room temperature, with shaking. Plates were then washed with PBST, and 100 μl TMB substrate solution (R&D Systems, cat #DY999) was added. Plate were incubated in the dark for 20 minutes at room temperature. 50 μl of Stop solution (R&D Systems, cat #DY994) (50 μl) was added to each well and mixed.
# Optical density at 450 nm was read on an EnSpire plate reader (Perkin Elmer). The remaining kinase activity by calculated using the following formula: % Relative activity=100×(A450sample−A450LC)/(A450HC−A450LC). The low and high control values (“LC” and “HC”) were generated from lysate from wells without cells or with cells treated with 0.1% DMSO, respectively.
# [3] = molecular target: Ba/F3 ERBB2 A775_G776insYVMA (Homo sapiens, UniProt P04626, DUP772-775, cells depend on it); assay: Cell viability assay, Ba/F3 ERBB2 A775_G776insYVMA; assay type: cell-based, mouse; details: Ba/F3 ERBB2 YVMA cells, cell viability, 72 hours, CellTiter Glo; Table B5; read-out: Ba/F3 ERBB2 YVMA, IC50
# Chain of Ba/F3 ERBB2 A775_G776insYVMA (P04626 with tags, fused parts or gaps DUP772-775): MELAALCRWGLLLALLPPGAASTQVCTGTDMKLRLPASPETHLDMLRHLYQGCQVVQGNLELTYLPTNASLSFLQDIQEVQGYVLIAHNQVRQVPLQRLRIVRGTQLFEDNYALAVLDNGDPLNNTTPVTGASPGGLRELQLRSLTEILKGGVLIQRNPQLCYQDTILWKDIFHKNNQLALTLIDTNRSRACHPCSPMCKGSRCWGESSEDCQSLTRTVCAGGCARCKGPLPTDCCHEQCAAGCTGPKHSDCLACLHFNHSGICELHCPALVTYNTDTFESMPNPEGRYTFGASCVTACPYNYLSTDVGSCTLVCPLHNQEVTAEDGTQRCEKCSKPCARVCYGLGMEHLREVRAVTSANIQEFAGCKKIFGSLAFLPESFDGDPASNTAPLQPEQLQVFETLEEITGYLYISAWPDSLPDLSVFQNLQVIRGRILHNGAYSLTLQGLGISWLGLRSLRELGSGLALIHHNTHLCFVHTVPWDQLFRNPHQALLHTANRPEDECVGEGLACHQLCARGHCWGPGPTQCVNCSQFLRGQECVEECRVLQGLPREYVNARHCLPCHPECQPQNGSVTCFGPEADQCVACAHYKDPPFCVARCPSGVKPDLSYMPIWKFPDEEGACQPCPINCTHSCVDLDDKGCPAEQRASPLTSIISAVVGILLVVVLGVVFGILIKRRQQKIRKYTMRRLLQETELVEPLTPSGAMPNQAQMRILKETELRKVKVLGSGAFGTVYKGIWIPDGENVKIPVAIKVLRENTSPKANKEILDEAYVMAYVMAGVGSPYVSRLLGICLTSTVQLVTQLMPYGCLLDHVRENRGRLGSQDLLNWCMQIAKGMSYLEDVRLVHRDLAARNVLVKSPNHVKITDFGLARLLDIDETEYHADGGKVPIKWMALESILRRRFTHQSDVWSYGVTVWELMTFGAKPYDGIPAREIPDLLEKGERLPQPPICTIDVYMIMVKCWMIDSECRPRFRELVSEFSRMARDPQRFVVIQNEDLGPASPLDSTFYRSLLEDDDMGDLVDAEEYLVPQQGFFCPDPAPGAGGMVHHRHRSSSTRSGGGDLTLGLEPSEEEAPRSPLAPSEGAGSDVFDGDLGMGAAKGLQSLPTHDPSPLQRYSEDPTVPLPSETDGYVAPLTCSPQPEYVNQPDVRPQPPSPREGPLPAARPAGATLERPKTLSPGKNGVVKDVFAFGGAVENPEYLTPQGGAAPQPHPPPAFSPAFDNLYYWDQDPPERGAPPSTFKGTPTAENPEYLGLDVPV
# Method: Cells were treated with compounds, and cell viability was measured as a metric of kinase inhibition.
# The Ba/F3 cell line is IL-3-dependent mouse cell line derived from the C3H mouse strain. Ba/F3 cell lines were engineered to express human ERBB2 or EGFR kinases, rendering the cells IL-3 independent. The lines were generated via retroviral transduction utilizing a Moloney murine leukemia virus (MMLV) promoter, and constructs are stably integrated into the cell genome. The sequences of the ERBB2 and EGFR genes used were NCBI Reference Sequences NM_004448.3 and NM_005228.3, respectively.
# Similarly, Ba/F3 cell lines engineered to express EGFR, ERBB2, or ERBB2 mutants were grown, harvested, counted and seeded at 3000 cells per well in 96-well plates. A subset of wells contained media only (low control, “LC”).
# Table B1 provides the growth media and number of cells seeded per well for the each cell line.
# Plates were placed in a 37° C., 5% CO2 incubator for 72 hours. Plates were then removed from the incubator and equilibrated for 15 minutes at room temperature. 40 μl of CellTiter Glo reagent (Promega) was added to measure the relative level of metabolically active cells by quantifying intracellular ATP concentrations. Plates were incubated for 30 minutes at room temperature, and luminescence was measured. […] Graphical curves were fitted using a nonlinear regression model with a sigmoidal dose response.
compound,measurement,setting,value
"Cc1cc(Nc2ncnc3cnc(N4CC(C)C(=CCN(C)C)C4=O)cc23)ccc1Oc1ccc2c(c1)ncn2C (single isomer, unassigned) [Example S97, Enantiomer #1, 3-[2-(dimethylamino)ethylidene]-4-methyl-1-[4-({3-methyl-4-[(1-methyl-1,3-benzodiazol-5-yl)oxy]phenyl}amino)pyrido[3,4-d]pyrimidin-6-yl]pyrrolidin-2-one]",IC50,[1],> 10000 nM
same,IC50,[2],41.3 nM
same,GI50,[3],45.6 nM
"Cc1cc(Nc2ncnc3cnc(N4CC(C)C(=CCN(C)C)C4=O)cc23)ccc1Oc1ccc2c(c1)ncn2C (single isomer, unassigned) [Example S97, Enantiomer #2, 3-[2-(dimethylamino)ethylidene]-4-methyl-1-[4-({3-methyl-4-[(1-methyl-1,3-benzodiazol-5-yl)oxy]phenyl}amino)pyrido[3,4-d]pyrimidin-6-yl]pyrrolidin-2-one]",IC50,[1],490 nM
same,IC50,[2],21 nM
same,GI50,[3],4.12 nM
"Cc1cc(Nc2ncnc3ccc(N4CC(C)C(=CCN(C)C)C4=O)nc23)ccc1Oc1ccn2ncnc2c1 (single isomer, unassigned) [Example S98, Enantiomer #1, 3-[2-(dimethylamino)ethylidene]-4-methyl-1-{4-[(3-methyl-4-{[1,2,4]triazolo[1,5-a]pyridin-7-yloxy}phenyl)amino]pyrido[3,2-d]pyrimidin-6-yl}pyrrolidin-2-one]",IC50,[1],158 nM
same,IC50,[2],11.9 nM
same,GI50,[3],1.13 nM
"Cc1cc(Nc2ncnc3ccc(N4CC(C)C(=CCN(C)C)C4=O)nc23)ccc1Oc1ccn2ncnc2c1 (single isomer, unassigned) [Example S98, Enantiomer #2, 3-[2-(dimethylamino)ethylidene]-4-methyl-1-{4-[(3-methyl-4-{[1,2,4]triazolo[1,5-a]pyridin-7-yloxy}phenyl)amino]pyrido[3,2-d]pyrimidin-6-yl}pyrrolidin-2-one]",IC50,[1],> 10000 nM
same,IC50,[2],26.4 nM
same,GI50,[3],71.2 nM
"Cc1cc(Nc2ncnc3ccc(N4C(=O)C(=CCN(C)C)C5CC54)nc23)ccc1Oc1ccn2ncnc2c1 (single isomer, unassigned) [Example S108, Enantiomer #1, 4-[2-(dimethylamino)ethylidene]-2-{4-[(3-methyl-4-{[1,2,4]triazolo[1,5-a]pyridin-7-yloxy}phenyl)amino]pyrido[3,2-d]pyrimidin-6-yl}-2-azabicyclo[3.1.0]hexan-3-one]",IC50,[1],6680 nM
same,IC50,[2],19.1 nM
same,GI50,[3],54 nM
"Cc1cc(Nc2ncnc3ccc(N4C(=O)C(=CCN(C)C)C5CC54)nc23)ccc1Oc1ccn2ncnc2c1 (single isomer, unassigned) [Example S108, Enantiomer #2, 4-[2-(dimethylamino)ethylidene]-2-{4-[(3-methyl-4-{[1,2,4]triazolo[1,5-a]pyridin-7-yloxy}phenyl)amino]pyrido[3,2-d]pyrimidin-6-yl}-2-azabicyclo[3.1.0]hexan-3-one]",IC50,[1],175 nM
same,IC50,[2],12.7 nM
same,GI50,[3],4.88 nM
"C=C1C(=O)N(c2ccc3ncnc(Nc4ccc(Oc5ccn6ncnc6c5)c(C)c4)c3c2)CC1COCCN(C)C (single isomer, unassigned) [Example S111, Enantiomer #1, 1-(4-(4-([1,2,4]triazolo[1,5-a]pyridin-7-yloxy)-3-methylphenylamino)quinazolin-6-yl)-4-((2-(dimethylamino)ethoxy)methyl)-3-methylenepyrrolidin-2-one]",IC50,[1],274 nM
same,IC50,[2],16.6 nM
same,GI50,[3],18.4 nM
"C=C1C(=O)N(c2ccc3ncnc(Nc4ccc(Oc5ccn6ncnc6c5)c(C)c4)c3c2)CC1COCCN(C)C (single isomer, unassigned) [Example S111, Enantiomer #2, 1-(4-(4-([1,2,4]triazolo[1,5-a]pyridin-7-yloxy)-3-methylphenylamino)quinazolin-6-yl)-4-((2-(dimethylamino)ethoxy)methyl)-3-methylenepyrrolidin-2-one]",IC50,[1],33.7 nM
same,IC50,[2],18.2 nM
same,GI50,[3],10.8 nM
"Cc1cc(Nc2ncnc3cnc(N4CC(C)/C(=C\CN(C)C)C4=O)cc23)c(F)cc1Oc1ccc2c(c1)nnn2C (single isomer, unassigned) [Example S115, Enantiomer #1, (3E)-3-[2-(dimethylamino)ethylidene]-1-[4-({2-fluoro-5-methyl-4-[(1-methyl-1,2,3-benzotriazol-5-yl)oxy]phenyl}amino)pyrido[3,4-d]pyrimidin-6-yl]-4-methylpyrrolidin-2-one]",IC50,[1],1000 nM
same,IC50,[2],32 nM
same,GI50,[3],11.3 nM
"Cc1cc(Nc2ncnc3cnc(N4CC(C)/C(=C\CN(C)C)C4=O)cc23)c(F)cc1Oc1ccc2c(c1)nnn2C (single isomer, unassigned) [Example S115, Enantiomer #2, (3E)-3-[2-(dimethylamino)ethylidene]-1-[4-({2-fluoro-5-methyl-4-[(1-methyl-1,2,3-benzotriazol-5-yl)oxy]phenyl}amino)pyrido[3,4-d]pyrimidin-6-yl]-4-methylpyrrolidin-2-one]",IC50,[1],> 10000 nM
same,IC50,[2],273 nM
same,GI50,[3],286 nM
"CC1CN(c2cc3c(Nc4ccc(Oc5ccc6c(c5)nnn6C)c(F)c4)ncnc3cn2)C(=O)/C1=C/CN(C)C (single isomer, unassigned) [Example S117, Enantiomer #1, (E)-3-(2-(dimethylamino)ethylidene)-1-(4-((3-fluoro-4-((1-methyl-1H-benzo[d][1,2,3]triazol-5-yl)oxy)phenyl)amino)pyrido[3,4-d]pyrimidin-6-yl)-4-methylpyrrolidin-2-one]",IC50,[1],968 nM
same,IC50,[2],40 nM
same,GI50,[3],12 nM
"CC1CN(c2cc3c(Nc4ccc(Oc5ccc6c(c5)nnn6C)c(F)c4)ncnc3cn2)C(=O)/C1=C/CN(C)C (single isomer, unassigned) [Example S117, Enantiomer #2, (E)-3-(2-(dimethylamino)ethylidene)-1-(4-((3-fluoro-4-((1-methyl-1H-benzo[d][1,2,3]triazol-5-yl)oxy)phenyl)amino)pyrido[3,4-d]pyrimidin-6-yl)-4-methylpyrrolidin-2-one]",IC50,[1],> 10000 nM
same,IC50,[2],589 nM
same,GI50,[3],> 500 nM
